# Laboratory results as given in ChEMBL document CHEMBL1201862, “PubChem BioAssay data set” (2004).
#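 Tested at 5 concentrations; 48 h exposure; 96-well plates; endpoints linearly interpolated, else capped at highest concentration. Here, GI50 denotes the concentration required for 50% inhibition of growth.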 Calls of active or inactive are those of the source. Rule as the data show it: active = GI50 up to about 1.1 µM and inactive = higher.
# Experiments:
# Test in all cases: growth of human tumour cells (NCI), 48 h
# ACHN = system: ACHN
# BT-549 = system: BT-549
# EKVX = system: EKVX
# HCT-15 = system: HCT-15
# HL-60 = system: HL-60
# HT-29 = system: HT-29
# MDA-MB-231 = system: MDA-MB-231
# Malme-3M = system: Malme-3M
# NCI-H460 = system: NCI-H460
# NCI-H522 = system: NCI-H522
# NCI/ADR-RES = system: NCI/ADR-RES
# RPMI-8226 = system: RPMI-8226
# RXF 393 = system: RXF 393
# SF-268 = system: SF-268
# SF-295 = system: SF-295
# SK-OV-3 = system: SK-OV-3
# SR = system: SR
# SW-620 = system: SW-620
# TK-10 = system: TK-10
# KM12 = system: KM12
SMILES,GI50 (ACHN),GI50 (BT-549),GI50 (EKVX),GI50 (HCT-15),GI50 (HL-60),GI50 (HT-29),GI50 (MDA-MB-231),GI50 (Malme-3M),GI50 (NCI-H460),GI50 (NCI-H522),GI50 (NCI/ADR-RES),GI50 (RPMI-8226),GI50 (RXF 393),GI50 (SF-268),GI50 (SF-295),GI50 (SK-OV-3),GI50 (SR),GI50 (SW-620),GI50 (TK-10),GI50 (KM12)
COc1cc2c(cc1OC)C(=O)N(c1ccc(O)cc1)C2,> 100 µM (inactive),> 100 µM (inactive),> 100 µM (inactive),> 100 µM,> 100 µM (inactive),> 100 µM (inactive),> 100 µM (inactive),> 100 µM (inactive),> 100 µM (inactive),> 100 µM (inactive),> 100 µM (inactive),> 100 µM (inactive),> 100 µM (inactive),> 100 µM (inactive),> 100 µM (inactive),> 100 µM (inactive),> 100 µM (inactive),> 100 µM (inactive),> 100 µM (inactive),–
CNC(=O)N(CCC#N)[C@H]1CCCC[C@@H]1N(C(=O)NC)c1ccccc1,> 100 µM (inactive),> 100 µM (inactive),> 100 µM (inactive),> 100 µM,–,> 100 µM (inactive),> 100 µM (inactive),> 100 µM (inactive),> 100 µM (inactive),> 100 µM (inactive),> 100 µM (inactive),> 100 µM (inactive),> 100 µM (inactive),–,> 100 µM (inactive),> 100 µM (inactive),> 100 µM (inactive),> 100 µM (inactive),> 100 µM (inactive),> 100 µM (inactive)
Cc1csc2c(=O)n(COCc3ccccc3)c(=O)[nH]c12,> 100 µM (inactive),> 100 µM (inactive),66.2 µM (inactive),–,> 100 µM (inactive),> 100 µM (inactive),> 100 µM (inactive),> 100 µM (inactive),> 100 µM (inactive),94.8 µM (inactive),> 100 µM (inactive),> 100 µM (inactive),> 100 µM (inactive),> 100 µM (inactive),> 100 µM (inactive),–,> 100 µM (inactive),> 100 µM (inactive),> 100 µM (inactive),> 100 µM (inactive)
CCC(/C=C/C1OC(=O)C=CC1C)=C\C(C)C/C=C/C(C)=C/C(C)C(=O)C(C)C(O)C(C)C/C(C)=C/C(=O)O (stereo unspecified),7.4e-06 µM (active),2.22e-06 µM (active),1.92e-05 µM (active),1.28 µM,0.855 µM (active),3.01e-06 µM (active),3.4e-06 µM (active),1.44 µM (inactive),–,0.955 µM (active),0.000115 µM (active),1.37 µM (inactive),1.13 µM (inactive),4.07e-06 µM (active),0.757 µM (active),3.11 µM (inactive),< 1e-06 µM (active),1.11 µM (active),9.4e-05 µM (active),4.54 µM (inactive)
C/C(=C\CO)CC/C=C(\C)CNc1ccccc1,> 100 µM (inactive),18.6 µM (inactive),23.9 µM (inactive),67.8 µM,30.1 µM (inactive),19.4 µM (inactive),34.8 µM (inactive),13.5 µM (inactive),> 100 µM (inactive),23.2 µM (inactive),40.4 µM (inactive),–,48.1 µM (inactive),73.1 µM (inactive),38.5 µM (inactive),> 100 µM (inactive),34.3 µM (inactive),50.2 µM (inactive),20.5 µM (inactive),28.4 µM (inactive)
CCCCCC(/C=C/C1CCC(=O)C1CC#C[Si](C)(C)C)OCc1ccccc1 (stereo unspecified),17.5 µM (inactive),17.3 µM (inactive),16.9 µM (inactive),15.6 µM,–,16.3 µM (inactive),23.1 µM (inactive),15.9 µM (inactive),17 µM (inactive),14 µM (inactive),14.5 µM (inactive),14.7 µM (inactive),13.9 µM (inactive),14.3 µM (inactive),17.1 µM (inactive),41.2 µM (inactive),> 35 µM (inactive),24 µM (inactive),22.1 µM (inactive),16.2 µM (inactive)
CCOC(=O)CC1(N)CC2c3ccccc3OC(=O)C2C(=O)N1 (stereo unspecified),> 100 µM (inactive),> 100 µM (inactive),> 100 µM (inactive),> 100 µM,> 100 µM (inactive),> 100 µM (inactive),> 100 µM (inactive),> 100 µM (inactive),> 100 µM (inactive),> 100 µM (inactive),> 100 µM (inactive),> 100 µM (inactive),> 100 µM (inactive),> 100 µM (inactive),–,–,> 100 µM (inactive),> 100 µM (inactive),> 100 µM (inactive),> 100 µM (inactive)
CC(=O)NN(c1ccccc1)C1CCN(c2ccccc2)N1C(C)=O (stereo unspecified),2.82 µM (inactive),> 10 µM (inactive),> 10 µM (inactive),0.881 µM,3.69 µM (inactive),5.74 µM (inactive),> 10 µM (inactive),3.48 µM (inactive),> 10 µM (inactive),7.53 µM (inactive),5.52 µM (inactive),8.71 µM (inactive),> 10 µM (inactive),5.07 µM (inactive),3.5 µM (inactive),> 10 µM (inactive),6.25 µM (inactive),0.889 µM (active),> 10 µM (inactive),–
COc1c2c(c(CC=C(C)C)c3oc(=O)c(-c4ccc(O)cc4)c(O)c13)OC(C)(C)C=C2 [LONCHOCARPIC ACID],22.1 µM (inactive),41.8 µM (inactive),22.3 µM (inactive),11.9 µM,21.2 µM (inactive),30 µM (inactive),24.8 µM (inactive),30.8 µM (inactive),24 µM (inactive),23 µM (inactive),28.7 µM (inactive),19.5 µM (inactive),1.41 µM (inactive),14.1 µM (inactive),28.2 µM (inactive),–,18.5 µM (inactive),44.1 µM (inactive),32.4 µM (inactive),14.4 µM (inactive)
CCCCCCCCCCCCCCCCOC[C@@H](COC(c1ccccc1)(c1ccccc1)c1ccccc1)O[PH](=S)OC (stereo partly specified),15.7 µM (inactive),3.35 µM (inactive),13.6 µM (inactive),10.6 µM,14.8 µM (inactive),16.8 µM (inactive),2.28 µM (inactive),–,1.6 µM (inactive),10.2 µM (inactive),22.6 µM (inactive),3.4 µM (inactive),7.53 µM (inactive),9.25 µM (inactive),1.41 µM (inactive),5.68 µM (inactive),2.33 µM (inactive),16.1 µM (inactive),11.5 µM (inactive),4.3 µM (inactive)
N=C(N)N/N=C/c1c(-c2cccc([N+](=O)[O-])c2)nc2n1CCS2,17.7 µM (inactive),15.9 µM (inactive),25.4 µM (inactive),33.1 µM,19.1 µM (inactive),15.7 µM (inactive),16.7 µM (inactive),18.9 µM (inactive),22.8 µM (inactive),16.3 µM (inactive),77.6 µM (inactive),34.9 µM (inactive),19.3 µM (inactive),19.6 µM (inactive),26.2 µM (inactive),–,12.7 µM (inactive),5.45 µM (inactive),23.4 µM (inactive),18.4 µM (inactive)
